These results are taken from patent US10781456B2, “Carbon-neutral and carbon-positive photorespiration bypass routes supporting higher photosynthetic rate and yield” (Max-Planck-Gesellschaft zur Förderung der Wissenschaften …, priority 2015, dated 2020).

In general, Km refers to the concentration of substrate that gives half-maximal velocity.

Data set [1] has as its target T1, 3-phosphoglycerate kinase (Sus scrofa, UniProt Q7SIB7).
T1 sequence (Q7SIB7 1-417): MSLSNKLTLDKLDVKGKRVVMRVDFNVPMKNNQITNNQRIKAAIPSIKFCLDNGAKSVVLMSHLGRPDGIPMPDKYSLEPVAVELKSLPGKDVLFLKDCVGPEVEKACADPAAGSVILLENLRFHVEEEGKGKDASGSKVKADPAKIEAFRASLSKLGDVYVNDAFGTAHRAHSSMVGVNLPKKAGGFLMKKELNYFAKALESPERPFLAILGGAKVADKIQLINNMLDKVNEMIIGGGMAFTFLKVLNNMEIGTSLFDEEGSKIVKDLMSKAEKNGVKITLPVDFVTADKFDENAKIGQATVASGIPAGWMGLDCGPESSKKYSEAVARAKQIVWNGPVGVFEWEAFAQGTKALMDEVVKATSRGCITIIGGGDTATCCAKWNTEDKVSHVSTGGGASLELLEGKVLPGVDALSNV
The following applies: Tompa 1986; Vas 1990; Szilagyi 1998; cited from earlier work.

The target in data set [2] is T2, propionyl-CoA transferase from Ralstonia eutropha (PCTRe), wild type, SEQ ID NO: 12 (Cupriavidus necator, UniProt Q0K874).
T2 sequence (Q0K874 1-542): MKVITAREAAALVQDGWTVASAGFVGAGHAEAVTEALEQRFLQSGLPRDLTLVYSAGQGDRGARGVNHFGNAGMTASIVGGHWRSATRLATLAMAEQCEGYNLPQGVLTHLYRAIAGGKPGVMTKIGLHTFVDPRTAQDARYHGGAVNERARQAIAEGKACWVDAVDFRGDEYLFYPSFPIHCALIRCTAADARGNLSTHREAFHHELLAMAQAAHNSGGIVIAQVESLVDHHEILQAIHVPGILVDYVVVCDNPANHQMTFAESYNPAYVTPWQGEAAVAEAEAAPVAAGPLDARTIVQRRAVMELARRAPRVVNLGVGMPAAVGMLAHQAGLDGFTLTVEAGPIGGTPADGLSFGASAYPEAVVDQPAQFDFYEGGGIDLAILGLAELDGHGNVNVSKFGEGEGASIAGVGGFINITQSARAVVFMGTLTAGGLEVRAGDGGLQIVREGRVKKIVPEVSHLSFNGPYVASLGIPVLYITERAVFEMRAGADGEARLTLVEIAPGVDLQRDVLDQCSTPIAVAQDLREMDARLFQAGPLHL
The following applies: 37° C., pH 7.5, 2 mM acetyl-CoA, 10-800 mM glycolate; n=3.

In data set [3] the target is T3, malonyl-CoA reductase from Chloroflexus aurantiacus (MCRCa), SEQ ID NO: 8 (Chloroflexus aurantiacus, UniProt Q6QQP7).
T3 sequence (Q6QQP7 1-1220): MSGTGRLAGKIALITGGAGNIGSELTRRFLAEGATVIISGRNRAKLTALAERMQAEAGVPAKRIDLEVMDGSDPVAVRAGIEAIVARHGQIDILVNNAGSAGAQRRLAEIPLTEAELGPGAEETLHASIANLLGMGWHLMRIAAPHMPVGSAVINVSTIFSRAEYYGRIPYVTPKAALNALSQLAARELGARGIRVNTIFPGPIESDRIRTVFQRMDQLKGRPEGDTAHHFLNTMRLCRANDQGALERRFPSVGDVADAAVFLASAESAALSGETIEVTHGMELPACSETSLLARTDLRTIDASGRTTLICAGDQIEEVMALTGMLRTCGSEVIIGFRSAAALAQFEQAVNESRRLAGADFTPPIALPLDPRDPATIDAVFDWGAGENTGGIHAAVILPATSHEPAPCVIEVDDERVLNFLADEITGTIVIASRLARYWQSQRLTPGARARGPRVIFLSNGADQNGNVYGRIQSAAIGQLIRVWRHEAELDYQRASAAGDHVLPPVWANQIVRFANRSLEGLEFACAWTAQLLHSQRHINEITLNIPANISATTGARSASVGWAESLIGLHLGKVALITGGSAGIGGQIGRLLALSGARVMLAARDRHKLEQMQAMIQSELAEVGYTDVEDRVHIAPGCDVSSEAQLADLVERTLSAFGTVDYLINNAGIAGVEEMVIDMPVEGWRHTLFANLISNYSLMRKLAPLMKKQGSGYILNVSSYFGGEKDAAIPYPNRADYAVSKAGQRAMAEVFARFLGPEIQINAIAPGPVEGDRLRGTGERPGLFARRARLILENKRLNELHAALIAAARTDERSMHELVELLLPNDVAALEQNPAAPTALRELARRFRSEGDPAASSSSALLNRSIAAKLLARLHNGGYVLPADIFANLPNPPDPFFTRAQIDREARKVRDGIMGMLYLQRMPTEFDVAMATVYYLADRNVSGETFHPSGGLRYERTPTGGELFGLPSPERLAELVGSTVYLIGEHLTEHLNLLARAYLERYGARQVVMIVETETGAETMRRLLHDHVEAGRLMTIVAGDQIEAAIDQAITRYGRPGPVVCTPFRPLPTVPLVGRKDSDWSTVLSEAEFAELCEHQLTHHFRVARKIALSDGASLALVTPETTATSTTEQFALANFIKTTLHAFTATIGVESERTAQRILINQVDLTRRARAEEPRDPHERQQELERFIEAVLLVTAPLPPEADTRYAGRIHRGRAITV
The following applies: read-out: apparent Km value for malonyl-CoA; Hügler et al., 2002; cited from earlier work.

Data set [4] deals with tartronyl-CoA. The data set is described as follows: malonyl-CoA reductase spectrophotometric assay, NADPH oxidation at 365 nm, tartronyl-CoA into glycerate (reactions 4# and 5). The format is biochemical. The following applies: 0.25 mM tartronyl-CoA, 37° C. As for the experimental part:
The kinetics of the MCRCa enzyme for enzymatically converting the substrate tartonyl-CoA into glycerate (via reactions 4# and 5 both catalyzed by MCRCa) were determined spectrophotometrically at 365 nm following the oxidation of NADPH. Per molecule tartronyl-CoA, two molecules of NADPH are oxidized by MCRCa (a first in reaction 4# and a second in reaction 5) The measurements were carried out at 37° C. in a total reaction volume of 200 μL containing 100 mM MOPS buffer (with 5 mM MgCl2, pH 7.5) with an initial NADPH concentration of 0.4 mM NADPH and 23 μg MCRCa.
An alternative enzyme for catalyzing the conversion of tartonyl-CoA into glycerate (via reactions 4# and 5) is the MCR from Erythrobacter sp. NAP1 (MCRE). It was tested for its activity with malonyl-CoA and for tartronyl-CoA with the assay described above for MCRCa.

Data set [5] concerns malonyl-CoA. The following applies: 0.3 mM substrate, 37° C., Kröger et al. 2011; cited from earlier work.
The test system of data set [6] is glycolyl-CoA. The data set is described as follows: MCRCa coupled assay: glycolyl-CoA carboxylation by PCC coupled to two step reduction to glycerate by MCRCa (reactions 3#, 4#, 5), HPLC-hrMS and NADPH absorption. Particulars: tartronyl-CoA produced by PCCMe_D407I_Y143H. In kind it is biochemical. As for the experimental part: In addition to the above mentioned assays also another assay was performed in which the formation of tartronyl-CoA from glycolyl-CoA (reaction 3#) by the PCCMe_D407I_Y143H enzyme was directly coupled to its subsequent two step reduction via tartronate-semialdehyde (reaction 4#) to glycerate (reaction 5) by use of the purified MCRCa (Kröger et al., 2011, loc. cit.). The reaction mixture (300 μL) contained 200 mM NH4HCO3 buffer, pH 7.7, 5 mM MgCl2, 1 mM ATP, 0.4 mM NADPH, 43 μg PCCMe_D407I_Y143H, and 184 μg of MCRCa.
To determine whether MCRCa was able to catalyze the two step reduction of tartonyl-CoA to glycerate (via tartronic semialdehyde), samples of the reaction mixture were withdrawn after all of the NADPH was consumed. The samples were stopped with formic acid (5% final concentration). The acidified samples were centrifuged at 4° C. and 17 000×g and the supernatants were analyzed by HPLC-hrMS.
The formation of glycerate was analyzed using an Agilent 6550 iFunnel Q-TOF LC-MS system equipped with an electrospray ionization source set to negative ionization mode. […]
LC-MS data were analyzed using MassHunter Qualitative Analysis software (Agilent). […] In such assays the tartronate semialdehyde can be covalently derivatized with phenylhydrazine to a phenylhydrazone, which can be detected by its absorbance at 324 nm and confirmed by its corresponding mass spectrum. […]

`O=C(O)COP(=O)(O)O` [2-PG, 2-phosphoglycolate]: the “type of inhibition of 3-phosphoglycerate kinase” value in data set [1] is recorded as “competitive inhibitor”.

As for `O=C(O)CO` [glycolate], the vmax in data set [2] is 1.3 ± 0.07 U mg^−1.

Turning to `CC(C)(COP(=O)(O)OP(=O)(O)OC[C@H]1O[C@@H](n2cnc3c(N)ncnc32)[C@H](O)[C@@H]1OP(=O)(O)O)[C@@H](O)C(=O)NCCC(=O)NCCSC(=O)CC(=O)O` [malonyl-CoA], the Km in data set [3] is 30 µM.

B1: MCRCa: malonyl-CoA reductase of Chloroflexus aurantiacus, NCBI accession no. AAS20429.1, SEQ ID NO: 8 (protein, listed as Chloroflexus aurantiacus)
chain: MSGTGRLAGKIALITGGAGNIGSELTRRFLAEGATVIISGRNRAKLTALAERMQAEAGVPAKRIDLEVMDGSDPVAVRAGIEAIVARHGQIDILVNNAGSAGAQRRLAEIPLTEAELGPGAEETLHASIANLLGMGWHLMRIAAPHMPVGSAVINVSTIFSRAEYYGRIPYVTPKAALNALSQLAARELGARGIRVNTIFPGPIESDRIRTVFQRMDQLKGRPEGDTAHHFLNTMRLCRANDQGALERRFPSVGDVADAAVFLASAESAALSGETIEVTHGMELPACSETSLLARTDLRTIDASGRTTLICAGDQIEEVMALTGMLRTCGSEVIIGFRSAAALAQFEQAVNESRRLAGADFTPPIALPLDPRDPATIDAVFDWGAGENTGGIHAAVILPATSHEPAPCVIEVDDERVLNFLADEITGTIVIASRLARYWQSQRLTPGARARGPRVIFLSNGADQNGNVYGRIQSAAIGQLIRVWRHEAELDYQRASAAGDHVLPPVWANQIVRFANRSLEGLEFACAWTAQLLHSQRHINEITLNIPANISATTGARSASVGWAESLIGLHLGKVALITGGSAGIGGQIGRLLALSGARVMLAARDRHKLEQMQAMIQSELAEVGYTDVEDRVHIAPGCDVSSEAQLADLVERTLSAFGTVDYLINNAGIAGVEEMVIDMPVEGWRHTLFANLISNYSLMRKLAPLMKKQGSGYILNVSSYFGGEKDAAIPYPNRADYAVSKAGQRAMAEVFARFLGPEIQINAIAPGPVEGDRLRGTGERPGLFARRARLILENKRLNELHAALIAAARTDERSMHELVELLLPNDVAALEQNPAAPTALRELARRFRSEGDPAASSSSALLNRSIAAKLLARLHNGGYVLPADIFANLPNPPDPFFTRAQIDREARKVRDGIMGMLYLQRMPTEFDVAMATVYYLADRNVSGETFHPSGGLRYERTPTGGELFGLPSPERLAELVGSTVYLIGEHLTEHLNLLARAYLERYGARQVVMIVETETGAETMRRLLHDHVEAGRLMTIVAGDQIEAAIDQAITRYGRPGPVVCTPFRPLPTVPLVGRKDSDWSTVLSEAEFAELCEHQLTHHFRVARKIALSDGASLALVTPETTATSTTEQFALANFIKTTLHAFTATIGVESERTAQRILINQVDLTRRARAEEPRDPHERQQELERFIEAVLLVTAPLPPEADTRYAGRIHRGRAITV
modifications: [CDS]1..3663 from SEQ ID NO 7
On to B1, for which the “specific activity with tartronyl-CoA” value in data set [4] is given as 0.6 U mg^−1. In addition, in data set [5], the “specific activity with malonyl-CoA” value is on record as “approximately 7 U mg^−1”. For the same molecule, in data set [6], the “reduction of tartronyl-CoA to glycerate (HPLC-hrMS)” value was “able to reduce the tartronyl-CoA, produced by PCCMe_D407I_Y143H, to glycerate”.
